Where no end group is shown, it is not given here.
Tests used:
[1] = test system: undifferentiated stem cells; assay: ALP activity of undifferentiated stem cells cultured on titanium disk (osteocyte differentiation); format: cell-based; conditions: peptide 10 μM, 6 hours then osteoblast differentiation medium 48 hours, versus control (C)
From the text: As described above, on the surface of hard structures such as bones or on the surface where cells are difficult to attach to, the peptide of the present invention can promotes the cell adhesion which is a key mechanism for the regeneration. […] Therefore, in this Example, various adhesive peptides developed and disclosed in the present disclosure were used to test their activity for promoting the osteocyte differentiation. For this, each peptide was mixed with undifferentiated stem cells, which was then cultured on a titanium osteoconductive surface, and analyzed the cells for the differentiation into osteocytes. Two×10^4 cells/ml treated with trypsin and mixed with peptide (10 μM) were cultured on a dental titanium disk having a diameter of 10 mm in size for 6 hours, after which the medium was replaced with osteoblast differentiation medium and the cells were cultured for 48 hours. Then the discs were recovered and the cells were lysed and ALP (Alkaline phosphatase) activity was measured.

femur muscle of mouse = assay: ectopic ossification analysis, ACS graft in femur muscle, micro-CT; format: in vivo; conditions: BMP-2 2 μg left femur, peptide 600 μg right femur; n=10; eight weeks after operation
Protocol: Eight weeks after the operation, animals were euthanized and micro-CT analysis was performed to observe calcification (ectopic ossification) in the muscle. All 10 animals were used.

Substance | ALP (Alkaline phosphatase) activity [1] | ectopic ossification (calcification in the muscle), micro-CT (femur muscle of mouse)
(R) 15-QLVVKFRALPC (RRRRRRRRRRRRRRRQLVVKFRALPC) [SEQ ID NO: 41, peptide positively charged at the N-terminus containing 15 arginine residues] | highest ALP activity | –
RQLVVKFRALPC [present peptide] | – | no ectopic ossification in all the mice treated

From patent publication US20230181677A1, “POLYPEPTIDE FOR PROMOTING BONE REGENERATION OR BONE FORMATION AND ITS USE” (SEWON BIOTECHNOLOGY INC., priority 2016, published 2023)
